# Test system: Boophilus microplus
# Test: Boophilus microplus test (BOOPMI injection)
# Assay type: in vivo
# Settings: 20 μg animal; injection into the abdomen; after 7 days, laying of fertile eggs
# Description: Boophilus microplus Test (BOOPMI Injection) Solvent: dimethyl sulphoxide To prepare an appropriate active ingredient formulation, 10 mg of active ingredient are mixed with 0.5 ml of solvent and the concentrate is diluted with solvent to the desired concentration. The active ingredient solution is injected into the abdomen (Boophilus microplus), and the animals are transferred into dishes and stored in a climate-controlled room. The efficacy is assessed by laying of fertile eggs. After 7 days, the efficacy in % is determined. 100% means that none of the ticks has laid any fertile eggs.
row,SMILES,efficacy
1,CCOc1nccnc1-n1nc(C(F)(F)F)c(-c2cc(Cl)cc(C(F)(F)F)c2)c1N [Ex. 12],100%
2,COc1nccnc1-n1nc(C(F)(F)C(F)(F)F)c(-c2cc(F)cc(C(F)(F)F)c2)c1N [Ex. 21],100%
3,COc1nccnc1-n1nc(C(F)(F)C(F)(F)C(F)(F)F)c(-c2cc(Cl)cc(C(F)(F)F)c2)c1N [Ex. 46],100%
4,COc1cc(-c2c(C(F)(F)F)nn(-c3nccnc3OC)c2N)cc(C(F)(F)F)c1OC [Ex. 89],100%
5,COc1nccnc1-n1nc(C(F)(F)F)c(-c2cc(Br)c3c(c2)OCCCO3)c1N [Ex. 131],100%
6,COc1nccnc1-n1nc(C(F)(F)F)c(-c2cc(Cl)c3c(c2)COCO3)c1N [Ex. 135],100%
7,COc1nccnc1-n1nc(C(F)(F)F)c(-c2cc(Cl)c3c(c2)OCCCO3)c1N [Ex. 136],100%

# Test system: red spider mite (Tetranychus urticae)
# Test: Tetranychus test, OP-resistant (TETRUR spray treatment)
# Assay type: in vivo
# Settings: 500 g/ha, bean leaf discs, after 6 days
# Description: Tetranychus Test, OP-Resistant (TETRUR Spray Treatment)
# Solvent: 78.0 parts by weight of acetone • • 1.5 parts by weight of dimethylformamide
# Emulsifier: 0.5 part by weight of alkylaryl polyglycol ether
# To prepare an appropriate active ingredient preparation, 1 part by weight of active ingredient is mixed with the stated amounts of solvent and emulsifier, and the concentrate is diluted with emulsifier-containing water to the desired concentration. Discs of bean leaves (Phaseolus vulgaris) infested by all stages of the red spider mite (Tetranychus urticae) are sprayed with an active ingredient preparation of the desired concentration. After 6 days, the efficacy in % is determined. 100% means that all spider mites have been killed; 0% means that none of the spider mites have been killed.
row,SMILES,efficacy
1,CCOc1nccnc1-n1nc(C(F)(F)F)c(-c2cc(Cl)cc(C(F)(F)F)c2)c1N [Ex. 12],90%
2,COc1nccnc1-n1nc(C(F)(F)C(F)(F)F)c(-c2cc(F)cc(C(F)(F)F)c2)c1N [Ex. 21],100%
3,COc1nccnc1-n1nc(C(F)(F)F)c(-c2cc(Cl)cc(C(F)(F)F)c2)c1NCc1ccccc1 [Ex. 33],90%
4,COc1nccnc1-n1nc(C(F)(F)C(F)(F)C(F)(F)F)c(-c2cc(Cl)cc(C(F)(F)F)c2)c1N [Ex. 46],80%
5,COc1nccnc1-n1nc(C(F)(F)C(F)F)c(-c2cc(Cl)cc(C(F)(F)F)c2)c1N [Ex. 59],100%
6,COc1nccnc1-n1nc(C(F)(F)F)c(-c2cc(Br)c3c(c2)OCCCO3)c1N [Ex. 131],100%
7,C=C(C)c1nn(-c2nccnc2OC)c(N)c1-c1cc(Cl)cc(Cl)c1 [Ex. 167],100%
8,COc1nccnc1-n1nc(C(C)(C)F)c(-c2cc(Cl)cc(Cl)c2)c1N [Ex. 168],100%

# Test system: green peach aphid (Myzus persicae)
# Test: Myzus test (MYZUPE spray treatment)
# Assay type: in vivo
# Settings: 500 g/ha, Chinese cabbage discs, after 6 days
# Description: Myzus Test (MYZUPE Spray Treatment) Solvent: 78 parts by weight of acetone • • 1.5 parts by weight of dimethylformamide Emulsifier: 0.5 part by weight of alkylaryl polyglycol ether To prepare an appropriate active ingredient preparation, 1 part by weight of active ingredient is mixed with the stated amounts of solvent and emulsifier, and the concentrate is diluted with emulsifier-containing water to the desired concentration. Discs of Chinese cabbage (Brassica pekinensis) infested by all stages of the green peach aphid (Myzus persicae) are sprayed with an active ingredient preparation of the desired concentration. After 6 days, the efficacy in % is determined. 100% means that all of the aphids have been destroyed; 0% means that none of the aphids have been destroyed.
row,SMILES,efficacy
1,COc1nccnc1-n1nc(C(F)(F)C(F)(F)F)c(-c2cc(F)cc(C(F)(F)F)c2)c1N [Ex. 21],100%
2,COc1nccnc1-n1nc(C(F)(F)F)c(-c2cc(Cl)cc(C(F)(F)F)c2)c1NCc1ccccc1 [Ex. 33],80%
3,COc1ccc(CNc2c(-c3cc(Cl)cc(C(F)(F)F)c3)c(C(F)(F)F)nn2-c2nccnc2OC)cc1 [Ex. 41],90%
4,COc1nccnc1-n1nc(C(F)(F)C(F)(F)C(F)(F)F)c(-c2cc(Cl)cc(C(F)(F)F)c2)c1N [Ex. 46],80%
5,COc1nccnc1-n1nc(C(F)(F)C(F)F)c(-c2cc(Cl)cc(C(F)(F)F)c2)c1N [Ex. 59],100%
6,C=CCN(CC=C)c1c(-c2cc(Cl)cc(C(F)(F)F)c2)c(C(F)(F)F)nn1-c1nccnc1OC [Ex. 103],80%
7,C=C(C)c1nn(-c2nccnc2OC)c(N)c1-c1cc(Cl)cc(Cl)c1 [Ex. 167],100%
8,COc1nccnc1-n1nc(C(C)(C)F)c(-c2cc(Cl)cc(Cl)c2)c1N [Ex. 168],100%

# Test system: unfed adult fleas (Ctenocephalides felis)
# Test: Ctenocephalides felis test (CTECFE)
# Assay type: in vivo
# Settings: 100 ppm in citrated cow's blood; after 2 days
# Description: Ctenocephalides felis Test ([…]) Solvent: 1 part by weight of dimethyl sulphoxide For the purpose of preparing an appropriate active ingredient formulation, 10 mg of active ingredient are mixed with 0.5 ml of dimethyl sulphoxide. A portion of the concentrate is diluted with citrated cow's blood and the desired concentration is established. About 20 unfed adult fleas (Ctenocephalides felis) are introduced into a chamber closed at the top and bottom with gauze. A metal cylinder, the bottom of which is closed with Parafilm, is placed onto the chamber. The cylinder contains the blood/active ingredient preparation, which can be imbibed by the fleas through the Parafilm membrane. After 2 days, the kill in % is determined. 100% means that all fleas have been killed; 0% means that none of the fleas have been killed.
row,SMILES,efficacy (kill)
1,CCOc1nccnc1-n1nc(C(F)(F)F)c(-c2cc(Cl)cc(C(F)(F)F)c2)c1N [Ex. 12],90%
2,COc1ccc(CNc2c(-c3cc(Cl)cc(C(F)(F)F)c3)c(C(F)(F)F)nn2-c2nccnc2OC)cc1 [Ex. 41],80%
3,COc1nccnc1-n1nc(C(F)(F)C(F)(F)C(F)(F)F)c(-c2cc(Cl)cc(C(F)(F)F)c2)c1N [Ex. 46],80%
4,COc1cc(-c2c(C(F)(F)F)nn(-c3nccnc3OC)c2N)cc(C(F)(F)F)c1OC [Ex. 89],100%
5,COc1nccnc1-n1nc(C(F)(F)F)c(-c2cc(Br)c3c(c2)OCCCO3)c1N [Ex. 131],100%
6,COc1nccnc1-n1nc(C(F)(F)F)c(-c2cc(Cl)c3c(c2)COCO3)c1N [Ex. 135],100%
7,COc1nccnc1-n1nc(C(F)(F)F)c(-c2cc(Cl)c3c(c2)OCCCO3)c1N [Ex. 136],100%

# Test system: adult Musca domestica
# Test: Musca domestica test
# Assay type: in vivo
# Settings: 100 ppm; after 2 days
# Description: Musca domestica Test Solvent: dimethyl sulphoxide To prepare an appropriate active ingredient formulation, 10 mg of active ingredient are mixed with 0.5 ml of dimethyl sulphoxide and the concentrate is diluted with water to the desired concentration. Vessels containing a sponge treated with the active ingredient preparation of the desired concentration are populated with adult Musca domestica. After 2 days, the kill in % is determined. 100% means that all of the flies have been killed; 0% means that none of the flies have been killed.
row,SMILES,efficacy (kill)
1,CCOc1nccnc1-n1nc(C(F)(F)F)c(-c2cc(Cl)cc(C(F)(F)F)c2)c1N [Ex. 12],100%
2,COc1nccnc1-n1nc(C(F)(F)C(F)(F)F)c(-c2cc(F)cc(C(F)(F)F)c2)c1N [Ex. 21],100%
3,COc1cc(-c2c(C(F)(F)F)nn(-c3nccnc3OC)c2N)cc(C(F)(F)F)c1OC [Ex. 89],80%
4,COc1nccnc1-n1nc(C(F)(F)F)c(-c2cc(Br)c3c(c2)OCCCO3)c1N [Ex. 131],100%

# Test system: caterpillars of the armyworm (Spodoptera frugiperda)
# Test: Spodoptera frugiperda test (SPODFR spray treatment)
# Assay type: in vivo
# Settings: 500 g/ha, maize leaf discs, after 7 days
# Description: Spodoptera frugiperda Test (SPODFR Spray Treatment) Solvent: 78.0 parts by weight of acetone • • 1.5 parts by weight of dimethylformamide Emulsifier: 0.5 part by weight of alkylaryl polyglycol ether To prepare an appropriate active ingredient preparation, 1 part by weight of active ingredient is mixed with the stated amounts of solvent and emulsifier, and the concentrate is diluted with emulsifier-containing water to the desired concentration. Discs of maize leaves (Zea mays) are sprayed with an active ingredient preparation of the desired concentration and, after drying, populated with caterpillars of the armyworm (Spodoptera frugiperda). After 7 days, the efficacy in % is determined. 100% means that all caterpillars have been killed; 0% means that none of the caterpillars have been killed.
row,SMILES,efficacy
1,COc1nccnc1-n1nc(C(F)(F)C(F)(F)F)c(-c2cc(F)cc(C(F)(F)F)c2)c1N [Ex. 21],100%
2,COc1nccnc1-n1nc(C(F)(F)C(F)(F)C(F)(F)F)c(-c2cc(Cl)cc(C(F)(F)F)c2)c1N [Ex. 46],100%
3,COc1nccnc1-n1nc(C(F)(F)C(F)F)c(-c2cc(Cl)cc(C(F)(F)F)c2)c1N [Ex. 59],83%
4,COc1cc(-c2c(C(F)(F)F)nn(-c3nccnc3OC)c2N)cc(C(F)(F)F)c1OC [Ex. 89],100%
5,COc1nccnc1-n1nc(C(F)(F)F)c(-c2cc(Br)c3c(c2)OCCCO3)c1N [Ex. 131],100%
6,COc1nccnc1-n1nc(C(F)(F)F)c(-c2cc(Cl)c3c(c2)COCO3)c1N [Ex. 135],80%
7,COc1nccnc1-n1nc(C(C)(C)F)c(-c2cc(Cl)cc(Cl)c2)c1N [Ex. 168],100%

# Test system: larvae of the mustard beetle (Phaedon cochleariae)
# Test: Phaedon test (PHAECO spray treatment)
# Assay type: in vivo
# Settings: 500 g/ha, Chinese cabbage discs, after 7 days
# Description: Phaedon Test ([…] Spray Treatment) Solvent: 78.0 parts by weight of acetone • • 1.5 parts by weight of dimethylformamide Emulsifier: 0.5 part by weight of alkylaryl polyglycol ether To prepare an appropriate active ingredient preparation, 1 part by weight of active ingredient is mixed with the stated amounts of solvent and emulsifier, and the concentrate is diluted with emulsifier-containing water to the desired concentration. Discs of Chinese cabbage (Brassica pekinensis) are sprayed with an active ingredient preparation of the desired concentration and, after drying, populated with larvae of the mustard beetle (Phaedon cochleariae). After 7 days, the efficacy in % is determined. 100% means that all beetle larvae have been killed; 0% means that none of the beetle larvae have been killed.
row,SMILES,efficacy
1,CCOc1nccnc1-n1nc(C(F)(F)F)c(-c2cc(Cl)cc(C(F)(F)F)c2)c1N [Ex. 12],100%
2,COc1nccnc1-n1nc(C(F)(F)C(F)(F)F)c(-c2cc(F)cc(C(F)(F)F)c2)c1N [Ex. 21],100%
3,COc1nccnc1-n1nc(C(F)(F)F)c(-c2cc(Cl)cc(C(F)(F)F)c2)c1NCc1ccccc1 [Ex. 33],100%
4,COc1ccc(CNc2c(-c3cc(Cl)cc(C(F)(F)F)c3)c(C(F)(F)F)nn2-c2nccnc2OC)cc1 [Ex. 41],100%
5,COc1nccnc1-n1nc(C(F)(F)C(F)(F)C(F)(F)F)c(-c2cc(Cl)cc(C(F)(F)F)c2)c1N [Ex. 46],100%
6,COc1nccnc1-n1nc(C(F)(F)C(F)F)c(-c2cc(Cl)cc(C(F)(F)F)c2)c1N [Ex. 59],100%
7,COc1cc(-c2c(C(F)(F)F)nn(-c3nccnc3OC)c2N)cc(C(F)(F)F)c1OC [Ex. 89],100%
8,COc1nccnc1-n1nc(C(F)(F)F)c(-c2cc(Br)c3c(c2)OCCCO3)c1N [Ex. 131],100%
9,COc1nccnc1-n1nc(C(F)(F)F)c(-c2cc(Cl)c3c(c2)COCO3)c1N [Ex. 135],100%
10,COc1nccnc1-n1nc(C(F)(F)F)c(-c2cc(Cl)c3c(c2)OCCCO3)c1N [Ex. 136],100%
11,C=C(C)c1nn(-c2nccnc2OC)c(N)c1-c1cc(Cl)cc(Cl)c1 [Ex. 167],100%
12,COc1nccnc1-n1nc(C(C)(C)F)c(-c2cc(Cl)cc(Cl)c2)c1N [Ex. 168],100%

# From patent US8513260B2, “Pyrazinylpyrazoles” (Bayer CropScience AG, priority 2009, dated 2013)
